Test results as given in patent publication US7531567B2, “Use of a medicament containing an effector of the glutathione metabolism together with α-lipoic acid in kidney replacement therapy” (Serumwerk Bernburg AG, priority 2001, dated 2009).

Legend:
Format in all cases: cell-based, human
T lymphocytes = assay: activation markers CD69, CD25, CD71 of phytohemagglutinin-stimulated T lymphocytes; details: thiol-deficient cells, culture period of 72 hours, FIG. 3
Description: In the culture batch described under example 1, human T lymphocytes were stimulated with […] of phyto-hemagglutinin. […] The influence of the combinations used according to the invention on the activation markers CD69 (early activation antigen), CD25 (intermediate activation antigen) and CD71 (late activation antigen) of T lymphocytes was investigated. In FIG. 3, the action of the combination of α-lipoic acid and ambroxole (FIG. 3a), and α-lipoic acid and enalapril (FIG. 3b) on the activation index of T lymphocytes is shown. Compared with normal T lymphocytes (activation index=1.0), in thiol-deficient cells a clear lowering of the activatability, confirming the cellular functional disorder, is to be noted. […] It can thus be concluded that the normalization of the cellular thiol status mediated by the combined use of α-lipoic acid and the respective effectors of the glutathione metabolism is accompanied by a restitution of the cellular functionality.

peripheral immune cells = assay: membrane-bound thiol expression of peripheral immune cells (CMTMR flow cytofluorimetry); details: α-lipoic acid 50 μM, captopril 10 μM, combination at the same concentrations
Description: Peripheral immune cells of healthy donors (n=9) were isolated from the peripheral blood by means of density gradient centrifugation. Lymphocytes having a donor-dependent relative proportion of about 90% in this case normally represent the main fraction of the resulting total population of mononuclear cells. 10% of the mononuclear cells are represented by monocytes. The mononuclear cells obtained were taken up in special cell culture media and incubated in a gas incubator at 37° C., a relative humidity of 98% and 5% relative air-CO2 content. The metabolism of the primarily resting immune cells was activated by means of mitogenic stimulation (0.5 μg/ml of phytohemagglutinin). In order to test the influence of the combinations used according to the invention on the thiol status of thiol-deficient immune cells, these were artificially thiol-depleted. This was carried out by culturing in thiol-deficient media (RPMI 1603) according to tested procedures. Comparison cultures using whole media (RPMI 1640) served for the definition of the best possible normal value under culture conditions. The expression of membrane-bound thiol groups was likewise determined by flow cytofluorimetry. In this connection, chloromethyltetramethylrhodamine (CMTMR) was employed as a thiol conjugate under the conditions of a blocked membrane potential and of an inhibited diffusion capacity of the cells. The fluorescence intensity of the bound fluorochrome molecules on the cell membrane is in this case in turn proportional to the amount of the thiol groups on the cell surface.

peritoneal macrophages [1] = assay: cellular thiol expression of peritoneal macrophages in kidney replacement therapy; details: time kinetics over 14 days (n=12); FIG. 4
Description: Peritoneal macrophages were isolated from the effluate of the peritoneal dialysis of high-grade renally insufficient patients, taken up in cell culture medium and incubated in a gas incubator at 37° C., a relative humidity of 98% and 7.5% relative air-CO2 content. In order to test the influence of the combinations used according to the invention on the thiol status of the peritoneal macrophages, in each case a fraction was treated with α-lipoic acid, the effector of the glutathione metabolism ambroxole or the ACE inhibitor enalapril or with the combination of α-lipoic acid/ambroxole or α-lipoic acid/enalapril, while in each case a further fraction was used as an untreated control. The determination of the cellular thiol status was carried out by means of the measuring method described under 1. The membrane expression of thiols was determined by means of the mean fluorescence intensity (mfi) of the sample (3000 cells/measurement) after coupling to a chloromethylfluorochrome derivative. In FIG. 4, the effect of the combination of α-lipoic acid and ambroxole (FIG. 4a), and α-lipoic acid and enalapril (FIG. 4b) in the time kinetics over 14 days is shown (n=12).

peritoneal macrophages [2] = assay: degree of differentiation and activation of peritoneal macrophages (CD15, CD11c, CD69, CD71); details: incubation for 6 days, control = 1.0, α-lipoic acid 50 μM, ambroxole 10 μM, enalapril 5 μM, captopril 10 μM
Description: Peritoneal macrophages were isolated from patients under kidney replacement therapy according to the processes described under example 3 and cultured in the presence of the combinations of α-lipoic acid and effectors of the glutathione metabolism named according to the invention. After incubation for 6 days, the degree of differentiation of the peritoneal macrophages was determined cytofluorometrically by means of the expression of the cell surface antigens CD15 and CD11c, and the degree of cellular activation by means of the coexpression of the activation antigens CD69 on CD15-positive cells and CD71 on CD11c-positive cells.

peritoneal macrophages [3] = assay: stability of intracellular thiol restitution in peritoneal macrophages in the dialysis model
Description: (§1) The peritoneal macrophages described under example 3, which were thiol-restituted by means of the combinations used according to the invention, were removed from this test system after 6 days and cultured in a dialysis model over a period of 14 days. For this, the peritoneal macrophages were adapted to mobile collagen IV-coated matrices and brought into contact with conventional dialysis solution 3 times daily for 60 minutes each. This model served here for the induction of a combined […]/osmotic stress. In FIG. 6, the action of the combination of α-lipoic acid and ambroxole (FIG. 6a), and α-lipoic acid and enalapril (FIG. 6b) on the intracellular thiol expression of the peritoneal macrophages in the time kinetics is presented. The membrane expression of thiols was determined by means of the mean fluorescence intensity (mfi) of the sample (3000 cells/measurement) after coupling to a chloro-methylfluorochrome derivative.

peritoneal macrophages [4] = assay: stability of membrane-bound thiol restitution in peritoneal macrophages in the dialysis model; details: dialysis model over 14 days; FIG. 7
Description: as §1

peritoneal macrophages [5] = assay: phagocytic ability of peritoneal macrophages (fluorochrome-labelled bacteria); details: treatment period of 6 days
Description: Peritoneal macrophages were isolated analogously to the procedure described under example 3 and cultured ex vivo. The determination of the phagocytic power was carried out by means of a cytofluorometric test at the individual cell level. In this test, the macrophages were cocultured with opsonized and fluorochrome-labelled bacteria. The amount of bacteria taken up in a defined time period was recorded quantitatively by means of the fluorescence intensity in the macrophages and was regarded as a measure of their phagocytic capacity. The influence of the combinations used according to the invention on the phagocytic ability of the peritoneal macrophages after a treatment period of 6 days is presented in Table 3.

peritoneal macrophages [6] = assay: cytokine synthesis of peritoneal macrophages (enzyme immunoassay); details: treatment period of 6 days (n=10); α-lipoic acid 50 μM, ambroxole 10 μM, enalapril 5 μM, captopril 10 μM
Description: In parallel to this, in this experimental batch the cell culture supernatants were recovered and the cytokines interleukin-6 (IL-6) and interleukin-1 receptor antagonist (IL-1ra) contained therein, synthesized and secreted by the peritoneal macrophages, were determined.

Q: How did the “effect on the activation index of T lymphocytes (in words)” value (T lymphocytes) turn out when `O=C(O)CCCCC1CCSS1` (stereo not drawn) [α-lipoic acid] was run?
A: slight improvement in the cellular activatability

Q: And the Membrane-bound thiol expression (peripheral immune cells; culture period 0 d)?
A: 2.37 ± 0.45 mfiBeads/Ratio

Q: And the Membrane-bound thiol expression (peripheral immune cells; culture period 1 d)?
A: 2.65 ± 0.39 mfiBeads/Ratio

Q: What about the Membrane-bound thiol expression (peripheral immune cells; culture period 2 d) of the same molecule?
A: 2.43 ± 0.52 mfiBeads/Ratio

Q: What about the Membrane-bound thiol expression (peripheral immune cells; culture period 3 d) of the same molecule?
A: 2.31 ± 0.36 mfiBeads/Ratio

Q: And the Membrane-bound thiol expression (peripheral immune cells; culture period 4 d)?
A: 2.26 ± 0.20 mfiBeads/Ratio

Q: What about the Membrane-bound thiol expression (peripheral immune cells; culture period 6 d) of the same molecule?
A: 2.19 ± 0.13 mfiBeads/Ratio

Q: What about the Membrane-bound thiol expression (peripheral immune cells; culture period 8 d) of the same molecule?
A: 1.93 ± 0.20 mfiBeads/Ratio

Q: And the Membrane-bound thiol expression (peripheral immune cells; culture period 10 d)?
A: 1.63 ± 0.16 mfiBeads/Ratio

Q: What about the Membrane-bound thiol expression (peripheral immune cells; culture period 12 d) of the same molecule?
A: 1.32 ± 0.21 mfiBeads/Ratio

Q: What about the Membrane-bound thiol expression (peripheral immune cells; culture period 14 d) of the same molecule?
A: 1.34 ± 0.20 mfiBeads/Ratio

Q: What about the “effect on the cellular thiol expression of peritoneal macrophages (in words)” value (peritoneal macrophages [1]) of the same molecule?
A: increase in the cellular thiol expression

Q: What about the CD15/69 (peritoneal macrophages [2]; CD69 on CD15-positive cells) of the same molecule?
A: 1.09 ± 0.08

Q: What about the CD11c/71 (peritoneal macrophages [2]; CD71 on CD11c-positive cells) of the same molecule?
A: 1.08 ± 0.09

Q: And the CD11c (peritoneal macrophages [2])?
A: 1.21 ± 0.11

Q: What about the CD15 (peritoneal macrophages [2]) of the same molecule?
A: 1.18 ± 0.16

Q: What about the “action relative to the action of the combinations” value (peritoneal macrophages [3]; after about 4 days in the dialysis model) of the same molecule?
A: approximately 50%

Q: And the “intracellular thiol status in the dialysis model (in words)” value (peritoneal macrophages [3]; dialysis model over 14 days, FIG. 6)?
A: only short-lasting

Q: What about the “membrane-bound thiol expression in the dialysis model (in words)” value (peritoneal macrophages [4]) of the same molecule?
A: intermediate

Q: What about the “increase in the phagocytosis rate in relation to the untreated control, factor” value (peritoneal macrophages [5]) of the same molecule?
A: 1.85

Q: And the Phagocytosis rate (peritoneal macrophages [5]; α-lipoic acid 50 μM, ambroxole 10 μM, enalapril 5 μM, captopril 10 μM)?
A: 687 ± 59 mfi/10,000 cells

Q: And the IL-1ra (peritoneal macrophages [6])?
A: 119.8 ± 19.5 ng/10^6 cells

Q: What about the IL-6 (peritoneal macrophages [6]) of the same molecule?
A: 46.9 ± 6.7 ng/10^6 cells
